In patent publication US8354432B2, “Cyclic derivatives as modulators of chemokine receptor activity” (Bristol-Myers Squibb Company, priority 2006, dated 2013) one finds Ki data, which are given here for eleven compounds.

The target of the first assay is T1, CCR1 (Homo sapiens, UniProt P32246).
T1 construct: the THP-1 cell line, which expresses the endogenous CCR1 receptor; endogenous in cells; host or cells: THP-1 cells (human monocytic line); the text also allows human PBMC or human monocytes
T1 sequence (P32246 1-355): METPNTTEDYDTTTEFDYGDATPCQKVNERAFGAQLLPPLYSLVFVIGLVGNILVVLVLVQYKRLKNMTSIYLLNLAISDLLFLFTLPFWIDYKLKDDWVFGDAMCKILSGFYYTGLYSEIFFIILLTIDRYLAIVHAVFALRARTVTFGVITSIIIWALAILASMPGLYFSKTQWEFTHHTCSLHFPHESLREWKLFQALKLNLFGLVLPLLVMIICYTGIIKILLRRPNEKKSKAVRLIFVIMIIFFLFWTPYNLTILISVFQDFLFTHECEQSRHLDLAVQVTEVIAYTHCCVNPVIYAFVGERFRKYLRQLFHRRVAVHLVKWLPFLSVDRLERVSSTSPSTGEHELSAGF
Put plainly: Antagonism of MIP-1α binding to human THP-1 cells (CCR1 binding).
Settings: not given
As for the experimental part: Antagonism of MIP-1α Binding to Human THP-1 Cells
Compounds of the present invention have activity in the antagonism of MIP-1α binding to human THP-1 cells described here.
Millipore filter plates (#MABVN1250) are treated with 100 μl of binding buffer (0.5% bovine serum albumin, 20 mM HEPES buffer and 5 mM magnesium chloride in RPMI 1640 media) for thirty minutes at room temperature. To measure binding, 50 μl of binding buffer, with or without a known concentration of compound, is combined with 50 μl of ^125-I labeled human MIP-1α (to give a final concentration of 50 pM radioligand) and 50 μl of binding buffer containing 5×10^5 cells. Cells used for such binding assays can include the THP-1 cell line, which expresses the endogenous CCR1 receptor, or human peripheral blood mononuclear cells, isolated by Ficoll-Hypaque gradient centrifugation, or human monocytes (Weiner et al., J. Immunol. Methods, 1980, 36, 89). The mixture of compound, cells and radioligand is incubated at room temperature for thirty minutes. Plates are placed onto a vacuum manifold, vacuum applied, and the plates washed three times with binding buffer containing 0.5M NaCl. The plastic skirt is removed from the plate, the plate allowed to air dry, the wells punched out and counted. The percent inhibition of binding is calculated using the total counts obtained in the absence of any competing compound and the background binding determined by addition of 100 nM MIP-1α in place of the test compound.
The Ki is a measure of affinity in units of concentration, obtained from inhibition or displacement. Turning to `COc1cc(N2CCC(C(Cn3nc(C(F)(F)F)c(Cl)c3C)NC(=O)CF)CC2)c(Cl)cc1Cl` (racemic) [Example 4p, N-(2-(4-Chloro-5-methyl-3-(trifluoromethyl)-1H-pyrazol-1-yl)-1-(1-(2,4-dichloro-5-methoxyphenyl)piperidin-4-yl)ethyl)-2-fluoroacetamide], affinity was put at a Ki of 4.3 nM.

The same assay, now with this note: 125-I labeled human MIP-1α (50 pM), THP-1 cells expressing endogenous CCR1, room temperature, thirty minutes; read-out: CCR1 Binding Ki (n = 1 unless otherwise noted).
As to “N-(1-(1-(4-chloro-3-methoxyphenyl)piperidin-4-yl)-2-(5-methyl-3-(trifluoromethyl)-1H-pyrazol-1-yl)ethyl)-2-hydroxyacetamide [Example 5b]”, the inhibition constant Ki was roughly 2200 nM.

In the case of `COc1cc(N2CCC(C(N)Cn3nc(C(F)(F)F)c(Cl)c3C)CC2)c(Cl)cc1Cl` (racemic) [Example 4a, 2-(4-Chloro-5-methyl-3-(trifluoromethyl)-1H-pyrazol-1-yl)-1-(1-(2,4-dichloro-5-methoxyphenyl)piperidin-4-yl)ethanamine], the inhibition constant (Ki) amounted to 125 nM.

Turning to `COc1cc(N2CCC(C(Cn3nc(C(F)(F)F)c(Cl)c3C)NC(C)=O)CC2)c(Cl)cc1Cl` (racemic) [Example 4c, N-(2-(4-Chloro-5-methyl-3-(trifluoromethyl)-1H-pyrazol-1-yl)-1-(1-(2,4-dichloro-5-methoxyphenyl)piperidin-4-yl)ethyl)acetamide], the Ki is 6.8 nM.

`COc1cc(N2CCC(C(Cn3nc(C(F)(F)F)cc3C)NC(=O)CN)CC2)ccc1Cl` (single isomer, unassigned) [Example 5c, 2-amino-N-(1-(1-(4-chloro-3-methoxyphenyl)piperidin-4-yl)-2-(5-methyl-3-(trifluoromethyl)-1H-pyrazol-1-yl)ethyl)acetamide]: the Ki amounted to 145 nM.

As to `COc1cc(N2CCC(C)(C(O)Cn3nc(C(F)(F)F)c(Cl)c3C)CC2)ccc1Cl` (racemic) [Example 11, 1-(1-(4-Chloro-3-methoxyphenyl)-4-methylpiperidin-4-yl)-2-(4-chloro-5-methyl-3-(trifluoromethyl)-1H-pyrazol-1-yl)ethanol], the Ki was roughly 1250 nM.

Regarding `COc1cc(N2CCC(C(Cn3nc(C(F)(F)F)c(Cl)c3C)NC(=O)[C@@H](C)O)CC2)c(Cl)cc1Cl` (mixture of isomers) [Example 4n, (2R)-N-(2-(4-Chloro-5-methyl-3-(trifluoromethyl)-1H-pyrazol-1-yl)-1-(1-(2,4-dichloro-5-methoxyphenyl)piperidin-4-yl)ethyl)-2-hydroxypropanamide], the Ki was determined as 3.46 ± 0.48 nM.

Consider `COc1cc(N2CCC(C(O)Cn3nc(C(F)(F)F)nc3C)CC2)ccc1Cl` (racemic) [Example 2h, 1-(1-(4-Chloro-3-methoxyphenyl)piperidin-4-yl)-2-(5-methyl-3-(trifluoromethyl)-1H-1,2,4-triazol-1-yl)ethanol], for which the Ki came out at 156 nM.

Consider `COc1cc(N2CCC(C(Cn3nc(C(F)(F)F)c(Cl)c3C)NC(=O)CO)CC2)c(Cl)cc1Cl` (centres unmarked) [Example 4i, N-(2-(4-Chloro-5-methyl-3-(trifluoromethyl)-1H-pyrazol-1-yl)-1-(1-(2,4-dichloro-5-methoxyphenyl)piperidin-4-yl)ethyl)-2-hydroxyacetamide], for which the Ki came to 5.15 ± 1.68 nM.

On to `COc1cc(N2CCC(C(O)Cn3nc(N)c4cccnc43)CC2)ccc1Cl` (racemic) [Example 2c, 2-(3-Amino-1H-pyrazolo[3,4-b]pyridin-1-yl)-1-(1-(4-chloro-3-methoxyphenyl)piperidin-4-yl)ethanol], for which the Ki is roughly 2220 nM.

As to `COc1cccc(N2CCC(C(O)Cn3nc(C(F)(F)F)c(Cl)c3C)CC2)c1` (racemic) [Example 15b, 2-(4-Chloro-5-methyl-3-(trifluoromethyl)-1H-pyrazol-1-yl)-1-(1-(3-methoxyphenyl)piperidin-4-yl)ethanol], the Ki amounted to 1020 nM.
